Results taken from PubChem BioAssay (NCI).
Where “and” joins values, the source holds several entries; their conditions need not be identical. Identical values can stand only once.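 How tested: cells in 96-well plates exposed to compound for 48 hours at five concentrations. Abbreviation: GI50, concentration required for 50% inhibition of growth. TGI marks complete inhibition of growth.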

Legend:
Experiment in all cases: DTP human tumour cell line panel, 48 h
SW-620 colon = tested on: SW-620 colon
ACHN renal = tested on: ACHN renal
HL-60(TB) leukemia = tested on: HL-60(TB) leukemia
DMS 273 small cell lung = tested on: DMS 273 small cell lung
HCT-15 colon = tested on: HCT-15 colon
A549 NSCLC = tested on: A549 NSCLC
SF-539 CNS = tested on: SF-539 CNS
KM20L2 colon = tested on: KM20L2 colon
MDA-MB-231 breast = tested on: MDA-MB-231 breast
HS 578T breast = tested on: HS 578T breast

| Compound | TGI (SW-620 colon) | TGI (ACHN renal) | TGI (HL-60(TB) leukemia) | TGI (DMS 273 small cell lung) [µM] | TGI (HCT-15 colon) | TGI (A549 NSCLC) | TGI (SF-539 CNS) | TGI (KM20L2 colon) [µM] | GI50 (MDA-MB-231 breast) | TGI (MDA-MB-231 breast) | GI50 (SW-620 colon) | GI50 (ACHN renal) | GI50 (HS 578T breast) | TGI (HS 578T breast) | GI50 (HL-60(TB) leukemia) | GI50 (HCT-15 colon) | GI50 (A549 NSCLC) | GI50 (SF-539 CNS) |
| --- | --- | --- | --- | --- | --- | --- | --- | --- | --- | --- | --- | --- | --- | --- | --- | --- | --- | --- |
| C=C(CS(=O)(=O)c1ccccc1)[P+](c1ccccc1)(c1ccccc1)c1ccccc1 | 51.1 µM | 53.1 µM | 32.6 µM | 33.4 | > 100 µM | > 100 µM | 78.2 µM | 32.8 |  |  |  |  |  |  |  |  |  |  |
| CC(=O)OC1C(CCl)OC(N=[N+]=[N-])C(OC(C)=O)C1OC(C)=O (centres undefined) | > 100 µM | > 100 µM | > 100 µM | > 100 | > 100 µM | > 100 µM | > 100 µM | > 100 |  |  |  |  |  |  |  |  |  |  |
| COC(=O)[C@@]1(C)CC[C@]2(C)CC[C@]3(C)C4=CC=C5C(=CC(=O)C(O)=C5C)[C@]4(C)CC[C@@]3(C)[C@@H]2C1 | 0.414 µM | 0.29 µM | 0.684 µM |  | 0.421 µM | 2.54 µM | 0.554 µM |  | 0.171 µM | 0.395 µM | 0.165 µM | 0.154 µM | 0.289 µM | 1.52 µM | 0.163 µM | 0.171 µM | 1.21 µM | 0.26 µM |
| CC(=O)OC(C)(C)N=Nc1ccc(Br)cc1 | > 100 µM | 23.1 µM | 28 µM |  | > 100 µM | > 100 µM | > 100 µM |  |  | > 100 µM |  |  |  | > 100 µM |  |  |  |  |
| CN(C)CCCNc1nccc(-c2c(-c3ccc(F)cc3)nn3cc(C(F)(F)F)ccc23)n1 | > 25 µM | > 25 µM | 10.9 µM |  | > 25 µM | > 25 µM | > 25 µM |  | 3.83 µM | 11.1 µM | 7.33 µM | 10.3 µM | 7.7 µM | > 25 µM | 4.55 µM | 7.26 µM | > 21.5 µM | 15.5 µM |
| CCC1CC(=O)N(SCC(N)C(=O)O)C1=O (centres undefined) | > 100 µM | > 100 µM | > 100 µM |  | > 100 µM | > 100 µM | > 100 µM |  |  | > 100 µM |  |  |  | > 100 µM |  |  |  |  |
| O=C(c1cccs1)c1c(C(F)(F)F)n([O-])c2ccc(F)cc2[n+]1=O | 2.32 µM | 2.82 µM | 0.394 µM |  | 1.64 µM | 7.02 µM | 3.47 µM |  | 1.5 µM | 3.1 µM | 0.523 µM | 1.5 µM | 1.67 µM | 6.71 µM | 0.154 µM | 0.435 µM | 2.32 µM | 1.67 µM |
| CC[C@H](C)n1cc(C)c2c(C(=O)NCc3c(C)cc(C)[nH]c3=O)cc(-c3ccc(N4CCNCC4)nc3)cc21 | 21.8 µM and 22.1 µM | 31.2 µM and 31.3 µM | 41.8 µM and 31.9 µM |  | 30.7 µM and 26.5 µM | 32.4 µM and 32.1 µM | 28.5 µM and 26.7 µM |  | 6.38 µM and 7 µM | 19.5 µM and 20.5 µM | 10.1 µM and 8.21 µM | 17.1 µM and 16.5 µM | 13.6 µM and 13.2 µM | 30.9 µM and 33.1 µM | 24.6 µM and 14.6 µM | 15.9 µM and 12.6 µM | 16.8 µM and 16.3 µM | 15.1 µM and 13 µM |
| CCOC(=O)c1c(C)n2c(=O)cc(C)c3c(OC(C)=O)c(OC(C)=O)cc1c32 | 19.3 µM | > 71.5 µM | 12.1 µM |  | 17.2 µM | 52.3 µM | 21.1 µM |  | 4.34 µM | 34.4 µM | 4.03 µM | 4.89 µM | 4.52 µM | > 65.2 µM | 3.2 µM | 3.37 µM | 5.86 µM | 4.24 µM |
| Nc1ccccc1NC(=O)c1ccc(CN2CCC/C(=C\c3cccc(Cl)c3)C2=O)cc1 | > 100 µM | 6.32 µM | 4.89 µM |  | > 100 µM | 75.7 µM | 5.33 µM |  | 0.584 µM | 7.93 µM | 0.0539 µM | 0.129 µM | 0.321 µM | > 100 µM | 0.449 µM | 0.0419 µM | 1.45 µM | 0.695 µM |
| COc1ccc2c(=O)c3cc([N+](=O)[O-])ccc3n(C)c2c1 | > 100 µM | > 100 µM | > 100 µM |  | > 100 µM | > 100 µM | > 100 µM |  |  | > 100 µM |  |  |  | > 100 µM |  |  |  |  |
| CNc1ccc(-c2cc(=O)oc3ccc(Cl)cc23)cc1 | > 100 µM | > 100 µM | 2.05 µM and 1.14 µM |  |  | > 100 µM | 0.481 µM and 0.109 µM |  | 1.07 µM and 0.424 µM | > 100 µM | 0.0477 µM and 0.0437 µM | 0.104 µM and 0.0558 µM | 0.083 µM and 0.0725 µM |  | 0.0431 µM and 0.0317 µM | 0.0421 µM | 0.137 µM and 0.0856 µM | 0.0527 µM and 0.0255 µM |
| C=C1CCC2C3(C)COC(c4ccc(SC)cc4)OC3CCC2(C)C1C/C=C1/C(=O)OCC1O (centres undefined) | 3.66 µM | 17.2 µM | 7.87 µM |  | 7.96 µM | 18.4 µM | 9.38 µM |  | 5.52 µM | 16.5 µM | 1.93 µM | 6.25 µM | 5.17 µM | 17 µM | 2.59 µM | 2.37 µM | 5.31 µM | 4.75 µM |
| COC(=O)c1ccc([N+](=O)[O-])c(O)c1 | > 100 µM | > 100 µM | > 100 µM |  | > 100 µM | > 100 µM | > 100 µM |  |  | > 100 µM |  |  |  | > 100 µM |  |  |  |  |
| COc1ccc(/C=C/c2cc(N3CCOCC3)c3cc(F)c(F)cc3n2)cc1OC | 11.6 µM | 12.4 µM | 5.14 µM |  | 12 µM | 8.99 µM | 4.29 µM |  | 0.483 µM | 4.66 µM | 0.667 µM | 0.615 µM | 2.37 µM | 28.8 µM | 0.435 µM | 0.392 µM | 1.67 µM | 0.913 µM |
| Oc1cc(O)c2c(=S)cc(-c3ccc(Cl)cc3)oc2c1 | 16.9 µM | 11.1 µM | 22.5 µM |  | 11.9 µM | 36.8 µM | 17.1 µM |  | 2 µM | 6.54 µM | 3.55 µM | 2.61 µM | 3.56 µM | 40.3 µM | 3.17 µM | 0.397 µM | 6.58 µM | 3.31 µM |
| COc1cccc(NC(=O)CC(=O)N2NC(C)C(N=Nc3cccc(C(=O)O)c3)C2=O)c1 (centres undefined) | > 100 µM | > 100 µM |  | > 100 |  | > 100 µM | > 100 µM | > 100 |  |  |  |  |  |  |  |  |  |  |
| Cc1cc(C)cc(Sc2c([N+](=O)[O-])ncn2C)c1 | 41.4 µM | > 100 µM |  | 25.8 |  | > 100 µM | 20.9 µM | > 100 |  |  |  |  |  |  |  |  |  |  |
| N#Cc1c(NC(=O)CN2CCOCC2)sc2c1CCCC2 | > 25 µM | > 25 µM | > 25 µM |  | > 25 µM | > 25 µM | > 25 µM |  | > 25 µM | > 25 µM | > 25 µM | > 25 µM | > 25 µM | > 25 µM | > 25 µM | > 25 µM | > 25 µM | > 25 µM |
